Measurements reported in patent US12612395B2, “Rocaglate derivatives and uses thereof” (TRUSTEES OF BOSTON UNIVERSITY, priority 2023, dated 2026).
Entries after “also recorded” stand apart in the source; their conditions may differ.

Columns and labels:
[1] = system: eIF4A paralogs (eIF4A1); experiment: PISA assay in GBM0308 cell lysates, eIF4A; format: binding, human; settings: GBM0308 lysate, compound 10 μM, AMP-PNP and (AG)8 RNA added
From the text: Derivatization-free target identification using a modified proteome integral solubility alteration (PISA) assay. The inventors next pursued proteome-wide target identification to better understand the target profiles of CSC-selective rocaglates. To enable cross-compound comparisons of target engagement, the inventors opted to use the Proteome Integral Solubility Alteration (PISA) assay,^29 a derivative of the mass spectrometry-based Cellular Thermal Shift Assay (MS-CETSA). In MS-CETSA,^30,31 target engagement is inferred through proteome-wide analysis of compound-induced changes to protein thermal stability; proteins with a shift in their half-maximal thermal denaturation temperature upon compound treatment are flagged as potential targets. The PISA assay obviates the need for MS-CETSA-derived thermal denaturation curves through curve integration by pooling of individual temperature points into a single “integral” sample for each treatment condition, thereby increasing throughput (FIG. 9). In contrast to MS-CETSA (which relies on curve comparisons), PISA determinations are performed by simply comparing soluble protein abundance levels between compound- and DMSO-treated samples. Importantly, protein fold-change measurements in PISA experiments generally scale with the thermal shift derived from CETSA experiments, and the magnitude of a thermal shift can inform on relative affinity between compounds and individual targets.^30,32-25 Maximal stability changes are protein-specific,^36 however, precluding estimations of preference for one target over another. Thus, PISA allows for simultaneous target profiling and comparisons of binding affinity between different compounds within a given target.
Of note, we also detected stabilization of DDX3Y, a paralog which shares >90% sequence similarity with DDX3X.
PISA assay in GBM0308 cell lysates: The PISA assay was performed in lysates as described by Gaetani and coworkers^S2 with slight modification. Pelleted GBM0308 cells were resuspended in ice-cold lysis buffer (1×PBS pH 7.4, 2 mM MgCl2, 0.5 mM AMP-PNP, 1 μM (AG)8 RNA, HALT protease inhibitor cocktail EDTA-free) and subjected to three freeze-thaw cycles with liquid nitrogen to extract lysate proteins. Thawing was performed at room temperature until ˜80% thawed, then completed on ice. Lysate was clarified by centrifugation for 10 minutes at 20,000 RCF and 4° C., transferred to a fresh Eppendorf tube, then centrifuged again for 10 minutes at 20,000 RCF and 4° C. to ensure removal of debris. Lysate concentration was determined using a Pierce BCA Protein Assay Kit and adjusted to 2.0 mg/mL in lysis buffer. Lysate was mixed 1:1 with a 2× solution of test compound or DMSO in lysis buffer, gently aspirated to ensure proper mixing, and incubated at room temperature for 10 minutes. […]

[2] = target: DDX3X:FAM-labeled poly r(AG)8 (Homo sapiens, UniProt O00571); experiment: Fluorescence polarization (FP) RNA clamping assay, DDX3X; format: binding; settings: 1 mM ATP; for stimulation of DDX3X:(AG)8 complex formation in protein titration, in words: 50 μM rocaglate; for stimulation of DDX3X binding to RNA (change in polarization), in words: compound 10 μM
Sequence of DDX3X:FAM-labeled poly r(AG)8 (O00571 whole entry, species assumed): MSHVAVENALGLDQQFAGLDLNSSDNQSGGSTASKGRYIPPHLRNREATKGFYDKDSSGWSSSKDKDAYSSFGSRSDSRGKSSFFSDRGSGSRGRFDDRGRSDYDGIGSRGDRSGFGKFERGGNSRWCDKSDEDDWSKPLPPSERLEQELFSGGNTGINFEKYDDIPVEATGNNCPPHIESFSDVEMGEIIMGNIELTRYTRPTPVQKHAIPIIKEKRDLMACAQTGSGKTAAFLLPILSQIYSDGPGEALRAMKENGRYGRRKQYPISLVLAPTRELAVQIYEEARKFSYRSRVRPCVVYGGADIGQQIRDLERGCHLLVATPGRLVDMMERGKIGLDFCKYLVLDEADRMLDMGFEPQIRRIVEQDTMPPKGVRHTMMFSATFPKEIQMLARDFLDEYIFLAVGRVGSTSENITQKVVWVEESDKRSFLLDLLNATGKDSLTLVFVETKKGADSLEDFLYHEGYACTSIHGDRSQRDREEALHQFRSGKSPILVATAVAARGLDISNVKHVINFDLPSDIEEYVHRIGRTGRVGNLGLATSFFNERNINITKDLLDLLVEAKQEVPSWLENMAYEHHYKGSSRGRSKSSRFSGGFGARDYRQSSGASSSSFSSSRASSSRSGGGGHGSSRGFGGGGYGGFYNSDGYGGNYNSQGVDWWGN
From the text: (§1) Given these observations, the inventors next sought to interrogate the effects of compound (−)-20 in secondary assays for both eIF4A and DDX3 engagement. […] While inherent differences between the FP assay conditions (e.g. probe affinity, protein mobility in FP buffer) preclude direct comparison of absolute AmP values across the two different proteins, the inventors noted that relative anti-CSC potencies for these compounds ((−)-7>(−)-5≈(−)-20) were similar to their relative degrees of clamping for DDX3X and eIF4A1. To follow up on these findings, the inventors performed in vitro translation experiments using a bicistronic mRNA reporter construct FF-HCV-Ren, where translation of the firefly luciferase (FF) cistron is cap-dependent, while translation of the Renilla luciferase (HCV-Ren) cistron is driven off an HCV-IRES, rendering translation of this cistron cap-independent.
Fluorescence Polarization (FP) Assays: Recombinant DDX3X or eIF4A1 (1.5 μM) were incubated with 10 nM FAM-labelled RNA probe and test compounds for 10 min in FP buffer (14.4 mM HEPES-KOH (pH 8), 108 mM NaCl, 1 mM MgCl2, 14.4% glycerol, 0.1% DMSO, 2 mM DTT, 1 mM ATP) at room temperature in black, low-volume 384 well plates (Corning 3820). FP readings were performed using a Pherastar FS microplate reader (BMG Labtech). Compounds were tested at a final concentration of 10 μM.^S9 For ADP+Pi conditions, ATP was substituted with 1 mM ADP and 1 mM Na2HPO4. To assess potency of complex formation, proteins were titrated in the presence of 10 nM probe, 50 μM compounds and 1 mM ATP. Experiments were run in three replicates, with each replicate employing the same master mix of protein, probe and buffer split across the four test conditions (DMSO+three test compounds). Within each replicate, data was normalized such that the highest response across the four tested conditions (as raw AmP counts) was used as 100% relative change in polarization, and the lowest response across the four tested conditions was used as 0% relative change in polarization. Data was analyzed using GraphPad Prism 8.4.0, with a “[Agonist] vs. normalized response” nonlinear regression model used to determine the EC50 for stimulation of helicase-RNA probe binding in the presence of test compound.

[3] = target: eIF4A1:FAM-labeled poly r(AG)8 (Homo sapiens, UniProt P60842); experiment: Fluorescence polarization (FP) RNA clamping assay, eIF4A1; format: binding; settings: compound 10 μM, 1 mM ATP
Sequence of eIF4A1:FAM-labeled poly r(AG)8 (P60842 whole entry, species assumed): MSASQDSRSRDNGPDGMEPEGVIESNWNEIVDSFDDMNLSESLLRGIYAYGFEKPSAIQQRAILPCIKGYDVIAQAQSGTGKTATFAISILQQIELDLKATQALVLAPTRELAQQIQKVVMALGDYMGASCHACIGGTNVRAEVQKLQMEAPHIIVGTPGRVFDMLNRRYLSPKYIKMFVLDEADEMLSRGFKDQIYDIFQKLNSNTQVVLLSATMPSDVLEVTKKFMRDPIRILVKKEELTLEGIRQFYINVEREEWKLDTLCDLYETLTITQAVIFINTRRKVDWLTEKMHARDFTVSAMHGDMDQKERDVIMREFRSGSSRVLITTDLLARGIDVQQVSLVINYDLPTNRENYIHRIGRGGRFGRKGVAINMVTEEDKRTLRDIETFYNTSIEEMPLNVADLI
From the text: as §1
Fluorescence Polarization (FP) Assays: Recombinant DDX3X or eIF4A1 (1.5 μM) were incubated with 10 nM FAM-labelled RNA probe and test compounds for 10 min in FP buffer (14.4 mM HEPES-KOH (pH 8), 108 mM NaCl, 1 mM MgCl2, 14.4% glycerol, 0.1% DMSO, 2 mM DTT, 1 mM ATP) at room temperature in black, low-volume 384 well plates (Corning 3820). FP readings were performed using a Pherastar FS microplate reader (BMG Labtech). Compounds were tested at a final concentration of 10 μM.^S9 For ADP+Pi conditions, ATP was substituted with 1 mM ADP and 1 mM Na2HPO4. To assess potency of complex formation, proteins were titrated in the presence of 10 nM probe, 50 μM compounds and 1 mM ATP. Experiments were run in three replicates, with each replicate employing the same master mix of protein, probe and buffer split across the four test conditions (DMSO+three test compounds). […] Data was analyzed using GraphPad Prism 8.4.0, with a “[Agonist] vs. normalized response” nonlinear regression model used to determine the EC50 for stimulation of helicase-RNA probe binding in the presence of test compound.

Row | SMILES | thermal stabilization of eIF4A paralogs (PISA), in words [1] | stimulation of DDX3X:(AG)8 complex formation in protein titration, in words [2] | stimulation of eIF4A1 binding to RNA (change in polarization), in words [3] | stimulation of DDX3X binding to RNA (change in polarization), in words [2]
1 | CONC(=O)[C@H]1[C@@H](O)[C@@]2(O)c3c(OC)cc(OC)cc3O[C@@]2(c2ccc(OC)cc2)[C@@H]1c1ccccc1 [(−)-5, CR-1-31b, reference compound] | stabilization | significantly less efficacious | strongly stimulated | –
2 | CONC(=O)[C@H]1[C@@H](O)[C@@]2(O)c3c(OC)cc(OC)cc3O[C@@]2(c2ccc(Br)cc2)[C@@H]1c1ccccc1 [(−)-7, SDS-1-021] | stabilized | clearly favored; also recorded: significant enhancement of binding stimulation | strongly stimulated; also recorded: strongest clamping | stimulated RNA binding to a greater extent
3 | COc1cc(OC)c2c(c1)O[C@@]1(c3ccc(Br)cc3)[C@H](c3ccccc3)[C@@H](C(=O)NS(=O)(=O)N(C)C)[C@@H](O)[C@@]21O [(−)-20, (1R,2R,3S,3aR,8bS)-3a-(4-bromophenyl)-N—(N,N-dimethylsulfamoyl)-1,8b-dihydroxy-6,8-dimethoxy-3-phenyl-2,3,3a,8b-tetrahydro-1H-cyclopenta[b]benzofuran-2-carboxamide] | stabilized | significant enhancement of binding stimulation | strongly stimulated | stimulated RNA binding to a greater extent
